In US11559538B2, “Substituted 1,2-oxaborolan-2-ols as PDE4 inhibitors” (Pfizer Inc., priority 2018, dated 2023):
Like-named read-outs stand apart in the source and are kept apart here.

Experiments:
Assay type in all cases: cell-based
[1] = system: IL-4; experiment: Cytokine assay: IL-4 release from PHA-L stimulated human PBMCs; conditions: read-out: IL4 IC50
Experimental: (§1) Cytokine inhibitory activity is determined by measuring the effect of test agent on the release of the cytokines IL-4, IL-13 and IFNγ from human peripheral blood mononuclear cells (PBMCs) stimulated with the T-cell mitogen phytohemagglutinin-L (PHA-L). At the time of assay, human PBMCs (Astarte Biologics) are removed from cryopreservation, thawed quickly at 37° C., diluted in assay medium (RPMI-Gibco 1640 medium, 10% heat inactivated fetal bovine serum (HIFBS), 2 mM glutamine and 10 mM HEPES pH 7.4) and then centrifuged at 250×g for 5 minutes. The resulting cell pellet is re-suspended in assay medium to a concentration of approximately 5×10^6 cells/mL and 50 μL of this cell suspension (approximately 250,000 cells) is added to each well of a 384-well cell culture microtiter plate (Perkin Elmer). Varying concentrations of test compound are then diluted in assay medium and added to the assay plate wells in a volume of 25 μL. After −10 minutes at room temperature (21° C.) the cells are stimulated by the addition of 25 μL of PHA-L (14 μg/mL; Millipore) and the assay plate is placed in an incubator at 37° C. in a humidified environment in 5% carbon dioxide. The final assay conditions are approximately 250,000 human PBMCs per well in assay medium containing 3.5 μg/mL PHA-L and the indicated final concentration of test compound (approximately 10 μM to […] by 4-fold dilution). The final concentration of DMSO in the assay is approximately 0.25%. After 48 hours, the assay plate is removed from the incubator and centrifuged at 250×g for 5 minutes. A portion of the resulting cell supernatant is then used to determine the amount of IL-4, IL-13 and IFNγ in each well. Cytokine measurements are made using human IL-4, IL-13 or IFNγ HTRF assay kits (CisBio) following the manufacturer's assay protocol. The concentrations and resulting effect values for tested compounds are plotted and the concentration of compound required for 50% effect (IC50) is determined with a four-parameter logistic dose response equation (E-WorkBook, ID Business Solutions Ltd.) and shown in Table 17.

[2] = system: IL-13; experiment: Cytokine assay: IL-13 release from PHA-L stimulated human PBMCs; conditions: read-out: IL13 IC50
Experimental: as §1

[3] = system: IFNγ; experiment: Cytokine assay: IFNγ release from PHA-L stimulated human PBMCs
Experimental: as §1

Row | SMILES | IC50 [1] | IC50 [2] | IC50 [3] | IC50 ([3]; Homo sapiens, PBMC) | IC50 ([1]; Homo sapiens, PBMC) | IC50 ([2]; Homo sapiens, PBMC)
1 | CCOc1cc(-c2cncc(C3COB(O)C3)c2)c(C)cc1OC (single isomer, unassigned) [Example 70, 4-(5-(5-ethoxy-4-methoxy-2-methylphenyl)pyridin-3-yl)-1,2-oxaborolan-2-ol] | 4.31 nM | 890 nM | 2.85 nM | – | – | –
2 | CCOc1cc(-c2cncc(C3COB(O)C3)c2)c(C)cc1OC (single isomer, unassigned) [Example 71, 4-(5-(5-ethoxy-4-methoxy-2-methylphenyl)pyridin-3-yl)-1,2-oxaborolan-2-ol] | 42 nM | 1910 nM | 18.8 nM | – | – | –
3 | CSc1ccc(-c2cncc(C3COB(O)C3)c2)cc1OC1CCCC1 (single isomer, unassigned) [Example 100, 4-(5-(3-(cyclopentyloxy)-4-(methylthio)phenyl)pyridin-3-yl)-1,2-oxaborolan-2-ol] | – | 472 nM | 4.32 nM | – | 32.7 nM | –
4 | CSc1ccc(-c2cncc(C3COB(O)C3)c2)cc1OC1CCCC1 (single isomer, unassigned) [Example 101, 4-(5-(3-(cyclopentyloxy)-4-(methylthio)phenyl)pyridin-3-yl)-1,2-oxaborolan-2-ol] | 26 nM | 2650 nM | 13.3 nM | – | – | –
5 | CCCOc1cc(-c2cncc(C3COB(O)C3)c2)ccc1SC (single isomer, unassigned) [Example 114, 4-(5-(4-(methylthio)-3-propoxyphenyl)pyridin-3-yl)-1,2-oxaborolan-2-ol] | – | – | – | 21.5 nM | 32.7 nM | 2910 nM
6 | CCCOc1cc(-c2cc(CO)cc(C3COB(O)C3)n2)ccc1OC (stereo not drawn) [Example 64, 4-(4-(hydroxymethyl)-6-(4-methoxy-3-propoxphenyl)pyridin-2-yl)-1,2-oxaborolan-2-ol] | – | – | – | 4.44 nM | 8.04 nM | 325 nM
7 | COc1ccc(-c2cccc(C3COB(O)C3)n2)cc1OC1CCCC1 (stereo not drawn) [Example 65, 4-(6-(3-(cyclopentyloxy)-4-methoxyphenyl)pyridin-2-yl)-1,2-oxaborolan-2-ol] | – | – | – | 5.34 nM | 186 nM | 814 nM
8 | CCCOc1c(OC)ccc(-c2cncc(C3COB(O)C3)c2)c1F (stereo not drawn) [Example 82, 4-(5-(2-fluoro-4-methoxy-3-propoxphenyl)pyridin-3-yl)-1,2-oxaborolan-2-ol] | 7.14 nM | 426 nM | 1.07 nM | – | – | –
9 | CCCOc1cc(-c2nc(C(C)O)cc(C3COB(O)C3)n2)ccc1OC (stereo not drawn) [Example 83, 4-(6-(1-hydroxyethyl)-2-(4-methoxy-3-propoxyphenyl)pyrimidin-4-yl)-1,2-oxaborolan-2-ol] | – | – | – | 4.73 nM | 9.42 nM | 439 nM
10 | COc1ccc(-c2cncc(C3COB(O)C3)c2)c(F)c1OC (stereo not drawn) [Example 108, 4-(5-(2-fluoro-3,4-dimethoxyphenyl)pyridin-3-yl)-1,2-oxaborolan-2-ol] | 22.1 nM | 493 nM | 4.35 nM | – | – | –
11 | CCCOc1cc(-c2cncc(C3COB(O)C3)c2)ccc1SC (stereo not drawn) [Example 113, 4-(5-(4-(methylthio)-3-propoxyphenyl)pyridin-3-yl)-1,2-oxaborolan-2-ol] | 36.1 nM | 497 nM | 3.81 nM | – | – | –
12 | COc1cnc(-c2cccc(C3COB(O)C3)c2)nc1OC (stereo not drawn) [Example 122, 4-(3-(4,5-dimethoxypyrimidin-2-yl)phenyl)-1,2-oxaborolan-2-ol] | – | – | – | 7.49 nM | 362 nM | 567 nM
13 | COc1ccc(-c2nc(C3COB(O)C3)ccc2F)cc1OC1CCCC1 (stereo not drawn) [Example 131, 4-(6-(3-(cyclopentyloxy)-4-methoxyphenyl)-5-fluoropyridin-2-yl)-1,2-oxaborolan-2-ol] | – | – | – | 5.7 nM | 11.6 nM | 591 nM
14 | CCOc1cc(-c2cncc(C3COB(O)C3)c2)ccc1SC (stereo not drawn) [Example 144, 4-(5-(3-ethoxy-4-(methylthio)phenyl)pyridin-3-yl)-1,2-oxaborolan-2-ol] | – | – | – | 5.02 nM | 83.9 nM | 706 nM
15 | COc1ccc(-c2cccc(C3COB(O)C3)c2)c(C#N)c1OC (stereo not drawn) [Example 177, 3′-(2-hydroxy-1,2-oxaborolan-4-yl)-3,4-dimethoxy-[1,1′-biphenyl]-2-carbonitrile] | – | – | – | 8.49 nM | 155 nM | 1220 nM
16 | COc1ccc(-c2cccc(C3COB(O)C3)c2)cc1OCC(C)C (stereo not drawn) [Example 183, 4-(3′-isobutoxy-4′-methoxy-[1,1′-biphenyl]-3-yl)-1,2-oxaborolan-2-ol] | – | – | – | 6.4 nM | 102 nM | 1370 nM
17 | COc1ccc(-c2cccc(C3COB(O)C3)n2)cc1OC (stereo not drawn) [Example 197, 4-(6-(3,4-dimethoxyphenyl)pyridin-2-yl)-1,2-oxaborolan-2-ol] | – | – | – | 12.2 nM | 107 nM | 1580 nM

More lines, in order of falling IC50 ([3]; Homo sapiens, PBMC), values ahead:

Row | IC50 [1] | IC50 [2] | IC50 [3] | IC50 ([3]; Homo sapiens, PBMC) | IC50 ([1]; Homo sapiens, PBMC) | IC50 ([2]; Homo sapiens, PBMC) | SMILES
18 | – | – | – | 3.88 nM | 12.4 nM | 450 nM | CCOc1cc(-c2cncc(C3COB(O)C3)c2)cc(Cl)c1OC (stereo not drawn) [Example 45, 4-(5-(3-chloro-5-ethoxy-4-methoxyphenyl)pyridin-3-yl)-1,2-oxaborolan-2-ol]
19 | – | – | – | 3.21 nM | 4.4 nM | 166 nM | CCCOc1cc(-c2cncc(C3COB(O)C3)c2)c(F)cc1OC (stereo not drawn) [Example 49, 4-(5-(2-fluoro-4-methoxy-5-propoxyphenyl)pyridin-3-yl)-1,2-oxaborolan-2-ol]
20 | – | – | – | 3.01 nM | 2.07 nM | 1240 nM | CCCOc1cc(-c2nc(COC)cc(C3COB(O)C3)n2)ccc1OC (stereo not drawn) [Example 102, 4-(2-(4-methoxy-3-propoxyphenyl)-6-(methoxymethyl)pyrimidin-4-yl)-1,2-oxaborolan-2-ol]
21 | – | – | – | 2.84 nM | 62.6 nM | 585 nM | CCCOc1cc(-c2cccc(C3COB(O)C3)n2)ccc1OC (stereo not drawn) [Example 127, 4-(6-(4-methoxy-3-propoxyphenyl)pyridin-2-yl)-1,2-oxaborolan-2-ol]
22 | 34 nM | 465 nM | – | 2.81 nM | – | – | CCOc1ccc(-c2cncc(C3COB(O)C3)c2)cc1OCC (single isomer, unassigned) [Example 97, 4-(5-(3,4-diethoxyphenyl)pyridin-3-yl)-1,2-oxaborolan-2-ol]
23 | – | – | – | 2.52 nM | 37.2 nM | 1090 nM | CCCOc1cc(-c2cc(C3COB(O)C3)cnn2)ccc1OC (stereo not drawn) [Example 137]
24 | – | – | – | 2.45 nM | 42 nM | 508 nM | CCCOc1c(OC)ccc(-c2cccc(C3COB(O)C3)c2)c1F (stereo not drawn) [Example 116, 4-(2′-fluoro-4′-methoxy-3′-propoxy-[1,1′-biphenyl]-3-yl)-1,2-oxaborolan-2-ol]
25 | – | – | – | 2.43 nM | 11.7 nM | 670 nM | CCCOc1cc(-c2cc(C3COB(O)C3)cnn2)ccc1OC (single isomer, unassigned) [Example 136, 4-(6-(4-methoxy-3-propoxyphenyl)pyridazin-4-yl)-1,2-oxaborolan-2-ol]
26 | – | – | – | 1.52 nM | 1.04 nM | 234 nM | CCCOc1cc(-c2cncc(C3COB(O)C3)c2)ccc1OC(F)F (stereo not drawn) [Example 50, 4-(5-(4-(difluoromethoxy)-3-propoxyphenyl)pyridin-3-yl)-1,2-oxaborolan-2-ol]
27 | – | – | – | 0.76 nM | 0.83 nM | 487 nM | CCCOc1cc(-c2nc(COC)cc(C3COB(O)C3)n2)ccc1OC (single isomer, unassigned) [Example 103, 4-(2-(4-methoxy-3-propoxyphenyl)-6-(methoxymethyl)pyrimidin-4-yl)-1,2-oxaborolan-2-ol]
28 | – | – | – | 0.33 nM | 0.36 nM | 2190 nM | CCCOc1cc(-c2nc(OCCO)cc(C3COB(O)C3)n2)ccc1OC (stereo not drawn) [Example 195, 4-(6-(2-hydroxyethoxy)-2-(4-methoxy-3-propoxyphenyl)pyrimidin-4-yl)-1,2-oxaborolan-2-ol]
